Read-outs that look alike come from different tables or passages of the source.

Series [1] is described as follows: Multiple ascending dose study: safety and safety margin versus NOAEL exposures from nonclinical chronic toxicology studies. The settings on record: 120 and 200 mg BID. It counts as in vivo, human. On the procedure: (§1) In addition, both dosage regimens provided complete (>90%) and sustained inhibition of AP activity throughout the 12-hour dosing interval. Therefore, 120 mg BID is selected as the minimum therapeutic dosage.

Series [2] in a line: Single-ascending and multiple-ascending dose clinical PK studies in healthy volunteers. It counts as in vivo, human. From the text:
Clinical pharmacokinetics (PK) and PD data have been generated for ALXN2050 in single-ascending and multiple-ascending dose studies in healthy volunteers.

In series [3] the test system is alternative pathway (AP) activity. Description: PD activity: AP inhibition in the AP Wieslab assay after multiple-dose administration in healthy participants. Type of series: in vivo, human. On the procedure:
The 120 mg BID dosing regimen provided sustained AP inhibition (AP activity <10%) in healthy participants whose ALXN2050 concentrations achieved the 90% inhibitory concentration (IC90) threshold through the 12-hour dosing periods. Therefore, 120 mg BID is selected as the minimum therapeutic dose. […] Therefore, the 180 mg BID is selected as the likely therapeutic dose.
as §1

For another series, the system named is lupus nephritis. The settings on record: LN patients, cited from earlier work.
Setting [4] is: NOAEL from nonclinical chronic toxicology studies.

For the molecule `CC(=O)c1nn(CC(=O)N2[C@H](C(=O)Nc3nc(Br)ccc3C)C[C@@]3(C)C[C@@H]23)c2ccc(-c3cnc(C)nc3)cc12` [ALXN2050], the “safety and efficacy of dose regimens” value in series [1] (multiple ascending dose study) is “safe and effective”. Moreover, in series [1] (setting [4]), the “safety margin in AUC0-24 versus exposures at NOAEL” value is ≥ 10 fold and the “safety margin in maximum plasma concentration (Cmax) versus exposures at NOAEL” value is ≥ 10 fold. Besides, the “intersubject variability in PK” value in series [2] is “Large intersubject variability”. The “increase in systemic exposure with dose” value in series [2] (multiple-dose administration at steady state (Days 7 and 14), 40 mg BID to 200 mg BID) was “greater than dose-proportional increase”. In addition, in series [2] (single-dose administration), the “increase in systemic exposure with dose” value was “dose-proportional increase”. In addition, the “inhibition of AP activity (complete and sustained)” value in series [3] (120 and 200 mg BID, throughout the 12-hour dosing interval) is > 90%. Moreover, the activity at 120 mg in series [3] (Homo sapiens, 120 mg BID, participants whose concentrations achieved the IC90 threshold through the 12-hour dosing periods, read-out: AP activity (sustained AP inhibition)) was < 10%. In addition, the “PD activity (AP inhibition in the AP Wieslab assay)” value in series [3] (multiple-dose 40 mg BID to 200 mg BID, healthy participants) is recorded as “increased with increasing dose”.
As for `C=C/C=C/C[C@@H](C)[C@@H](O)[C@H]1C(=O)N[C@@H](CC)C(=O)N(C)CC(=O)N(C)[C@@H](CC(C)C)C(=O)N[C@@H](C(C)C)C(=O)N(C)[C@@H](CC(C)C)C(=O)N[C@@H](C)C(=O)N[C@H](C)C(=O)N(C)[C@@H](CC(C)C)C(=O)N(C)[C@@H](CC(C)C)C(=O)N(C)[C@@H](C(C)C)C(=O)N1C` [voclosporin], the CRR in the series on lupus nephritis (at one year, placebo 22.5%) is recorded as 40.8%.
In the case of “belimumab: approved in the US for the treatment of LN”, in the series with lupus nephritis (at two years, placebo 20.0%), the CRR is on record as 30.0%.

Values taken from patent publication US20250090528A1, “USE OF COMPLEMENT FACTOR D INHIBITOR FOR TREATMENT OF LUPUS NEPHRITIS AND IMMUNOGLOBULIN A NEPHROPATHY” (Alexion Pharmaceuticals, Inc., priority 2021, published 2025).
